Assay results from patent EP0058009A1, “Novel benzanilide derivatives and pharmaceutical compositions containing them” (KYOWA HAKKO KOGYO CO., LTD., priority 1981, dated 1982).

What was measured:
dd strain male mice = test: Acute toxicity, oral administration, deaths counted over one week; assay type: in vivo; conditions: Dose: 1500mg/kg, observed for a week
acetic acid writhing = test: Analgesic effect, acetic acid writhing method (Koster et al.); assay type: in vivo, dd strain male mice; conditions: Mus musculus, oral, 60 minutes before 0.7% acetic acid i.p., number of writhes, dd male mice, read-out: Analgesic Effect Inhibition Rate (%)
Description: (3) Analgesic Effect (Acetic Acid Writhing Method) This was done according to the method by Koster, et al Federation Proc. 18, 412 (1959)]. The animals to be tested were groups of 10 dd strain male nice weighing 20 ± 1 g. The compound to be tested .was administered orally, and 60 minutes after the administration, 0.2 ml of a 0.7% acetic acid solution ,vas administered intraperitoneally. For a period of 10 minutes from […] minutes after the administration of said acetic acid solution, the number of writhes was measured and the average number was determined. The unhibition rate (%) was calculated from the following equation. [formula] Ec: The average number of writhes in the control group. Et: The average number of writhes in the group to which the compound to be tested was administered.

[1] = system: carrageenin-induced paw edema; test: Effect on carrageenin-induced paw edema (anti-inflammatory effect), method of Winter et al.; assay type: in vivo, Wistar strain male rats; conditions: Rattus norvegicus, oral, 1 hour before 1% carrageenin, paw volume 3 hours after injection, Wistar male rats, read-out: Anti-inflammatory Effect Inhibition Rate (%)
Description: (2) Effect on carrageenin-induced paw edema (Anti-inflammatory Effect)
This test was conducted according to the method by Winter et al.[Winter C.A. et al.: Proc. Soc. Exptl.
As the animals to be tested, groups of 5 - 10 Wistar strain male rats weighing 140 ± 10 g were used, and a 1% carrageenin solution was employed as the phlogistic agent. The compound to be tested was - orally administered to the animals, and an hour later, 0.1 ml of the phlogistic agent was injected subcutaneously to the right hind paw, to induce edema.
The volume of the paw was measured before the injection of the phlogistic agent and 3 hours after the injection, and based on these volume measurements, the edema rate was calculated from the following equation: [formula]
Vn: The volume before the phlogistic agent treatment.
Vt: The volume after the phlogistic agent treatment.
The effect was determined, compared with the control group, the group to which the compound to be tested was not administered and expressed in terms of the inhibition rate of edema. The inhibition rate was calculated from the following equation.
Ec: The average edema rate of the control group.
Et: The average edema rate of the group to which the compound to be tested was administered...

SMILES | Acute Toxicity Nos. of Deaths/ Nos. of Tests (dd strain male mice) | inhibition in vivo at 100 mg/kg (acetic acid writhing) [%] | inhibition in vivo at 100 mg/kg [1] [%]
COc1ccc(C(=O)Nc2cc(C(F)(F)F)ccc2Cl)cc1N [Compound 5, 3-Amino-2'-chloro-5'-tri-fluoromethyl-4-methoxy-benzanilide] | 0/6 | 52.3 | 0
COc1ccc(C(=O)Nc2cccc(C(F)(F)F)c2)cc1N [Compound 2, 3-Amino-3'-trifluoro-methyl-4-benzanilide] | 0/6 | 48.8 | 38.8
CC(C)Cc1ccc(C(C)C(=O)O)cc1 (stereo not drawn) [Ibuprofen, α-methyl-4-(2-methylpropyl) benzene acetic acid, reference compound] | 2/5 | 16.3 | 68.4
COc1ccc(C(=O)Nc2cccc(F)c2)cc1N [Compound 1, 3-Amino-3'-fluoro-4-methoxy-benzanilide] | 0/6 | 41.9 | 64.3
COc1ccc(C(=O)Nc2c(C)cccc2C)cc1N [Compound 8, 3-Amino-2',6'-dimethyl-4-methoxy-benzanilide] | 0/6 | 45.7 | 19.5
COc1ccc(C(=O)Nc2ccccc2)cc1N [Compound 6, 3-Amino-4-methoxy-benzanilide] | 0/5 | 43.4 | 55.9
COc1ccc(C(=O)Nc2ccc(Cl)cc2Cl)cc1N [Compound 7, 3-Amino-2',4'-dichloro-4-methoxy-benzanilide] | 0/6 | 40.2 | 5.5
COc1cc(C)nc(-n2nc(C)cc2OC)n1 [Mepirizole, 4-methoxy-2-(5-methoxy-3-meLhylpyrazol-1-yl)-6-methylpyrimidine, reference compound] | 2/2 | 44.6 | 29.2
COc1ccc(C(=O)Nc2cc(C(F)(F)F)cc(C(F)(F)F)c2)cc1N [Compound 3, 3-Amino-3',5'-ditrifluoro-methyl-4-methoxy-benzanilide] | 0/6 | 24.6 | 16.9
COc1ccc(C(=O)Nc2ccc(Cl)cc2C(F)(F)F)cc1N [Compound 4, 3-Amino-2'-trifluoro-methyl-4'-chloro-4-methoxy-benzanilide] | 0/6 | 34.8 | 8.7
